Reference: the C3SDB collision cross section collection
Values belong to the molecule of their own block, whether it stands above or below them.

Conditions: instrument: TW, calibrated with polyalanine and drug standards

SMILES: CCC(=O)OCC(=O)[C@@]1(OC(=O)CC)[C@@H](C)C[C@H]2[C@@H]3CCC4=CC(=O)C=C[C@]4(C)[C@@]3(F)[C@@H](O)C[C@@]21C [BETAMETHASONE 17,21-DIPROPIONATE]
- collision cross section (N2) ([M+H]+): 218.1 Å²

SMILES: COc1cc2c(cc1O)C[C@H]1c3c(cc(O)c(OC)c3-2)CCN1C [BOLDINE]
- collision cross section (N2) ([M+H]+): 179.2 Å²

SMILES: CCN(CC)CCNC(=O)c1cc(Br)c(N)cc1OC [BROMOPRIDE]
- collision cross section (N2) ([M+H]+): 173.6 Å²

SMILES: CCCCOc1ccc(CC(=O)NO)cc1 [BUFEXAMAC]
- collision cross section (N2) ([M+H]+): 161 Å²

SMILES: COC(=O)C[C@H]1C2(C)CC34OC5(C)O[C@@]6([C@H](OC(C)=O)C(OC(C)=O)[C@]7(C)C(/C(=C(/O)C(C)C)C(=O)O[C@H]7c7ccoc7)[C@@]6(O5)[C@H](OC(C)=O)[C@@]3(O)C2OC(=O)C(C)C)[C@]14C (stereo not given in full) [BUSSEIN]
- collision cross section (N2) ([M+H]+): 258.7 Å²

SMILES: CCCCOC(=O)c1ccc(N)cc1 [BUTAMBEN]
- collision cross section (N2) ([M+H]+): 159.4 Å²

SMILES: CC[C@@]1(O)C(=O)OCc2c1cc1n(c2=O)Cc2cc3ccccc3nc2-1 [CAMPTOTHECIN]
- collision cross section (N2) ([M+H]+): 181.9 Å²

SMILES: COc1cc(C(=O)NCCCCCC(=O)O)cc(OC)c1OC [CAPOBENIC ACID]
- collision cross section (N2) ([M+H]+): 176.9 Å²

SMILES: COc1cc(CNC(=O)CCCC/C=C/C(C)C)ccc1O [CAPSAICIN]
- collision cross section (N2) ([M+H]+): 181.6 Å²

SMILES: CCOC(=O)n1ccn(C)c1=S [CARBIMAZOLE]
- collision cross section (N2) ([M+H]+): 134.4 Å²

SMILES: CC(=O)Oc1cc(OC(C)=O)c2c(c1)O[C@H](c1ccc(OC(C)=O)c(OC(C)=O)c1)[C@@H](OC(C)=O)C2 [CATECHIN PENTAACETATE]
- collision cross section (N2) ([M+Na]+): 206.6 Å²

SMILES: CC1=C(C(=O)O)N2C(=O)[C@@H](NC(=O)[C@H](N)c3ccc(O)cc3)[C@H]2SC1 [CEFADROXIL]
- collision cross section (N2) ([M+H]+): 183.1 Å²

SMILES: Nc1nc(/C(=C/CC(=O)O)C(=O)N[C@@H]2C(=O)N3C(C(=O)O)=CCS[C@H]23)cs1 [CEFTIBUTEN]
- collision cross section (N2) ([M+H]+): 191.4 Å²

SMILES: OC[C@H]1O[C@@H](O[C@H]2[C@H](O)[C@@H](O)[C@@H](O)O[C@@H]2CO)[C@H](O)[C@@H](O)[C@@H]1O [CELLOBIOSE (D[+])]
- collision cross section (N2) ([M+Na]+): 175.7 Å²

SMILES: C/C=C(/C)C(=O)O[C@H]1CC[C@@]2(C)[C@@H]3CC[C@H]4[C@]5(O)C[C@H](O)[C@@]6(O)[C@@H](CN7C[C@@H](C)CC[C@H]7[C@@]6(C)O)[C@]5(O)C[C@@]42O[C@]13O [CEVADINE]
- collision cross section (N2) ([M+H]+): 237.2 Å²

SMILES: O=C1C(Cl)=C(Cl)C(=O)C(Cl)=C1Cl [CHLORANIL]
- collision cross section (N2) ([M+H]+): 148.9 Å²

SMILES: NC(=NCCCCCCN=C(N)/N=C(\N)Nc1ccc(Cl)cc1)/N=C(\N)Nc1ccc(Cl)cc1 [CHLORHEXIDINE]
- collision cross section (N2) ([M+H]+): 221.3 Å²

SMILES: CC(=O)O[C@]1(C(C)=O)CC[C@H]2[C@@H]3C=C(Cl)C4=CC(=O)CC[C@]4(C)[C@H]3CC[C@@]21C [CHLORMADINONE ACETATE]
- collision cross section (N2) ([M+H]+): 197 Å²

SMILES: CC(C)CCC[C@@H](C)[C@H]1CC[C@H]2[C@@H]3CC=C4CC(=O)CC[C@]4(C)[C@H]3CC[C@]12C [CHOLEST-5-EN-3-ONE]
- collision cross section (N2) ([M+H]+): 211.4 Å²

SMILES: C=C[C@H]1CN2CC[C@H]1C[C@H]2[C@H](O)c1ccnc2ccccc12 [CINCHONIDINE]
- collision cross section (N2) ([M+H]+): 168.2 Å²

Other lines, results leading:

- collision cross section (N2) ([M+H]+): 186.7 Å²
SMILES: NS(=O)(=O)c1cc2c(cc1Cl)NC(CSCc1ccccc1)=NS2(=O)=O [BENZTHIAZIDE]

- collision cross section (N2) ([M+H]+): 193.3 Å²
SMILES: CC(=O)Oc1ccc(C(c2ccc(OC(C)=O)cc2)c2ccccn2)cc1 [BISACODYL]

- collision cross section (N2) ([M+H]+): 194.9 Å²
SMILES: O=C(CCCN1CCC(O)(c2ccc(Br)cc2)CC1)c1ccc(F)cc1 [BROMPERIDOL]

- collision cross section (N2) ([M+H]+): 137.7 Å²
SMILES: Oc1c(Br)cc(Br)c2cccnc12 [BROXYQUINOLINE]

- collision cross section (N2) ([M+H]+): 206.3 Å²
SMILES: COC(=O)C[C@H]1C(C)(C)C(=O)[C@@H]2CC3=C(CC[C@]4(C)C3=CC(=O)O[C@H]4c3ccoc3)[C@@]1(C)C2=O [CARAPIN-8(9)-ENE]

- collision cross section (N2) ([M+H]+): 218.2 Å²
SMILES: CC(C)(O/N=C(\C(=O)N[C@@H]1C(=O)N2C(C(=O)[O-])=C(C[n+]3ccccc3)CS[C@H]12)c1csc(N)n1)C(=O)O [CEFTAZIDIME]

- collision cross section (N2) ([M+H]+): 158.5 Å²
SMILES: CCCNC(=O)NS(=O)(=O)c1ccc(Cl)cc1 [CHLORPROPAMIDE]

- collision cross section (N2) ([M+H]+): 134 Å²
SMILES: O=C(O)c1cc(=O)c2ccccc2o1 [CHROMOCARB]

- collision cross section (N2) ([M+H]+): 160.5 Å²
SMILES: COc1cc(OC)c2c(=O)cc(-c3ccccc3)oc2c1 [CHRYSIN DIMETHYL ETHER]

- collision cross section (N2) ([M+H]+): 199.7 Å²
SMILES: O=C1CCc2cc(OCCCCc3nnnn3C3CCCCC3)ccc2N1 [CILOSTAZOL]
